Data from patent publication US20160184459A1, “CANCER CELL SPECIFIC IMAGING PROBES AND METHODS OF USE” (THE RESEARCH FOUNDATION FOR THE STATE UNIVERSITY OF NEW YORK, priority 2013, published 2016).

Columns and labels:
[1] = test system: malignant cell lines with high HDAC and CTSL activity (COGA-10, HCA-7, HT29, HCT116); assay: MTS cell viability assay, malignant colon cancer cell lines; format: cell-based; conditions: Homo sapiens, 120 h, 5 d, read-out: IC50, inhibition of cell viability
Method: FIG. 13. Inhibition of cell viability by BKAc-Puro is presented in dose-response curve format for the same cell lines as in FIG. 8. The cell lines were treated with DMSO or the indicated doses of agent (4.22, 8.44, 16.9, 33.8, 67.5, or 135 μM) for 5 d followed by MTS assay. Data represent mean values of triplicate measurements±s.d. (n=3). IC50 values were fit by logistic regression.
Cell number was determined by cell counting using improved Neubauer hemacytometer. Cell viability was calculated as the number of viable cells divided by the total number of cells using Trypan Blue Stain (Invitrogen) to distinguish non-viable cells. Data were obtained from duplicated samples with quadruplicate measurements. MTS based cell viability assay was performed using CellTiter 96 Aqueous Cell Proliferation Assay (Promega) according to the manufacturer's instruction. […] After additional 2-3 h incubation, the absorbance of the formazan at 490 nm was measured by the microplate reader. […] Determination of non-viable cells using PI staining was performed by adding 1 μg/ml of PI solution (Sigma) to the cell culture, prior to the examination under fluorescence microscopy (Axiovert 3, Carl Zeiss) through a×32 objective equipped with a digital imaging processor (Infinity 3, Lumenera).

CCD841-CoN = assay: Cell viability assays, normal colon cells; format: cell-based, human; conditions: negative control cells
Method: FIG. 15. Inhibition of cell viability by BKAc-Puro. The cell lines were grown and analyzed as in FIG. 12.
FIG. 18. Selective cytotoxicity by BKAc-Puro on pancreatic cancer cells. Pancreatic cancer (BXPC-3 and Miapaca-2), colon cancer (HCT116 as a positive control sensitive to the drug), and normal colon (CCD841-CoN as a negative control) cells were grown and analyzed as in FIG. 13. BKAc-Puro can effectively cause cell death on pancreatic cancer cells (BXPC-3 and MiaPaca-2) that are known to resistant to conventional chemotherapeutic drugs including 5-FU and Gemicitabine.
FIG. 19. Selective cytotoxicity by BKAc-Puro on prostate cancer cells. Prostate cancer (PC-3, DU-145, and LNCaP), colon cancer (HCT116 as a positive control sensitive to the drug), and normal colon (CCD841-CoN as a negative control) cells were grown and analyzed as in FIG. 13. BKAc-Puro can effectively cause cell death on prostate cancer cells.
Cell number was determined by cell counting using improved Neubauer hemacytometer. Cell viability was calculated as the number of viable cells divided by the total number of cells using Trypan Blue Stain (Invitrogen) to distinguish non-viable cells. Data were obtained from duplicated samples with quadruplicate measurements. […] After additional 2-3 h incubation, the absorbance of the formazan at 490 nm was measured by the microplate reader. […]

HCT116 xenograft tumor = assay: HCT116 mouse xenograft model; format: in vivo
Description: FIG. 20. In vivo anticancer efficacy of BKAc-Puro. […] HCT116 cells were implanted subcutaneously into female nude mice. When the developed tumors reached 200 mm^3, animals were intraperitoneally injected by the indicated dose of the compound or vehicle control (DMSO). Tumor volume was estimated by the equation vol=(a×b^2)/2, where vol, a, and b represent volume, the length of the major axis, and the length of the minor axis, respectively. Arrows indicate the time points of treatment. (b) Body weight change during the treatment in a. Value is expressed in percent change compared to the day of the first treatment.
FIG. 21. HCT116 cells were implanted subcutaneously into female nude mice. When palpable tumors reached 50-150 mm^3, animals were randomized and treated by the indicated dose of the compound or vehicle control (DMSO) via intraperitoneal injection. Tumor incidence is presented as number of mice developed tumor (volume >300 mm^3) after 2 weeks of daily treatment/number of mice treated. Tumor volume was estimated by the equation vol=(a×b^2)/2, where vol, a, and b represent volume, the length of the major axis, and the length of the minor axis, respectively.
FIG. 29. In vivo anticancer efficacy of Boc-KAc-Puro. (a) Tumor growth in HCT116 xenograft model. Animals were treated with acidified saline control or Boc-KAc-Puro (50 or 150 mg/kg). Values are mean±s.d. (n=5 mice per group). *** P<0.001 compared to the control group. P=0.000716 (50 mg/kg), P=0.000349 (150 mg/kg) at 10 d. (b) Body weight change during the treatment in a and was monitored as a sign of general animal health. Values are mean±s.d. (c) Tumor growth in HT29 xenograft model. Animals were treated with acidified saline control or Boc-KAc-Puro (150 mg/kg). Values are mean±s.d. (n=5 mice per group). *** P<0.001 compared to the control group. P=0.000514 (150 mg/kg) at 10 d. (d) Body weight change during the treatment in c was monitored as a sign of general animal health. Values are mean±s.d. (e) Levels of Puro-incorporated proteins were monitored by immunoblotting. Animals bearing HT29 xenograft tumor were given daily intraperitoneal administration of the prodrug at 150 mg/kg/dose for 3 d, followed by preparation of tissue lysates. The lower panel (anti-α-Tubulin) served as a loading control.
To assess the in vivo efficacy of the compounds, mouse xenograft model using HCT116 colon cancer cells is used as an established evaluation method for the anticancer drugs against cancer (Cao, Z. A. et al. 2006). The growth inhibitory effects of the compounds on size-matched xenografts are examined by subcutaneous implantation of HCT116 cells into nude mice. HCT116 cells are injected subcutaneously and allowed to develop palpable tumors (50-150 mm^3) before initiation of drug administration. Mice (5-10 animals per group) are treated with the vehicle (DMSO or PBS) or the prodrugs by intraperitoneal administration. Dose ranges are determined by the dose escalation studies of the prodrugs. […] Relative tumor volume is calculated by dividing tumor volume by that on day 0 (the day of treatment initiation). […] Statistical significance of the data is evaluated by performing one-way ANOVA with post hoc Turkey's test to compare means (GraphPad Prism software). The efficacy of the compounds is further evaluated in a similar manner by using other cancer cell lines. […]

`COc1ccc(CC(NC(=O)C(CCCCNC(C)=O)NC(=O)OC(C)(C)C)C(=O)NC2C(O)[C@H](n3cnc4c(N(C)C)ncnc43)O[C@@H]2CO)cc1` (stereo partly drawn) [BKAc-Puro, N-[3′-(α-Amino-p-methoxyhydrocinnamamido)-3′-deoxy-N,N-dimethyldenosinyl)-N-α-(t-butoxycarbonyl]-N-ε-acetyl-L-lysineamide] was tested, and the IC50 [1] was about 10 µM, the “Effect on normal colon cells” value (CCD841-CoN) was “relatively little effect” and the “Tumors developed at 200 mg/kg” value (HCT116 xenograft tumor; 200 mg/kg, intraperitoneal, 2 weeks daily) was “no tumors greater than 300 mm^2 were observed”. For the same molecule, the Tumor growth (HCT116 xenograft tumor; 50 and 150 mg/kg/dose daily intraperitoneally for 10 d) was “dose-dependent inhibition of tumor growth”, the “Tumor mass in comparison to acidified saline control” value (HCT116 xenograft tumor; 50 and 150 mg/kg/dose, 10 d, P<0.001) was “significantly smaller tumor mass” and the Tumor incidence (HCT116 xenograft tumor; intraperitoneal, 2 weeks of daily treatment) was “inhibition of tumor incidence”. The Tumor growth (HCT116 xenograft tumor; intraperitoneal, treatment from tumors of 200 mm^3, DMSO vehicle control) was “inhibition of tumor growth”.
